For the assay, the target named is Focal adhesion kinase 1 (Homo sapiens, UniProt Q05397). The experiment in a line: In Vitro Enzymatic Inhibitory Activity Assay.
Focal adhesion kinase 1, sequence (Q05397 whole entry): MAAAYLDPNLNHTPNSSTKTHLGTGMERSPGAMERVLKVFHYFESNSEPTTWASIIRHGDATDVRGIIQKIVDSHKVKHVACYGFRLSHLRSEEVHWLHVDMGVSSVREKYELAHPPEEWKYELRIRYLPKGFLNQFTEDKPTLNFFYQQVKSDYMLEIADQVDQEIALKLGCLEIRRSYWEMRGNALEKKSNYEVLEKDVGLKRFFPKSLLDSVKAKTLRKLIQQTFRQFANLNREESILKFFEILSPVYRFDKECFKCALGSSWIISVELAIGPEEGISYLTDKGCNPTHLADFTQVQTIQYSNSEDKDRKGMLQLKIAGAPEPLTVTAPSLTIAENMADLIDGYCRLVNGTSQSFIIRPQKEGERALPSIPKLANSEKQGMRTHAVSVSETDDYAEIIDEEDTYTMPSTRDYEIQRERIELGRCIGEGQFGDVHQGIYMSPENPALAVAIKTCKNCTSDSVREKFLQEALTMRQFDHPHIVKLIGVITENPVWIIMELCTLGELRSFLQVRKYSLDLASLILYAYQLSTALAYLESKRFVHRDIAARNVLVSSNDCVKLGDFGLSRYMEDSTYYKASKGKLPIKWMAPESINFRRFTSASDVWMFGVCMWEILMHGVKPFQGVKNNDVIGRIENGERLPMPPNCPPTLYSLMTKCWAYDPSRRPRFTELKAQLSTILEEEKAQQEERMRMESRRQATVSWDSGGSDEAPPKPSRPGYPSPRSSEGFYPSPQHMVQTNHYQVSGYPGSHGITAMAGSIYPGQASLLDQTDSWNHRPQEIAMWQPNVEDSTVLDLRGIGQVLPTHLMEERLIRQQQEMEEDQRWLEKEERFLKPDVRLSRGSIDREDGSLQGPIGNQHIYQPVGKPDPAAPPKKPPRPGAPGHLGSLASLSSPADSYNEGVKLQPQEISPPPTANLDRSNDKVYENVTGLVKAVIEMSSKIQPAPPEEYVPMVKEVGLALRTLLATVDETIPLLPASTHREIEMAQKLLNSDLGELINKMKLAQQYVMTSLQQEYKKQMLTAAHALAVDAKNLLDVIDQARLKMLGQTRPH
Consider `C=C(C)C(=O)N1CCCC(c2cccc(NCc3ccc(Nc4ncc(C(F)(F)F)c(Nc5ccccc5C(=O)NC)n4)cc3)c2)C1` (stereo unspecified) [US20250127800, Example 24], for which the IC50 (usually the midpoint of a concentration-inhibition curve) was determined as 2.93 nM. This lies in the single-digit nanomolar range.

In turn, `C=CC(=O)N1CCCC(c2cccc(NCc3ccc(Nc4ncc(C(F)(F)F)c(Nc5ccccc5C(=O)NC)n4)c(OC)c3)c2)C1` (stereo unspecified) [US20250127800, Example 12] gave a half-inhibitory concentration (IC50) of 3.41 nM. The compound `C=CC(=O)N1CCCC(NC(=O)c2ccc(Nc3ncc(C(F)(F)F)c(NCc4nccnc4N(C)S(C)(=O)=O)n3)c(OC)c2)C1` (stereo unspecified) [US20250127800, Example 3] yielded an IC50 of 1.59 nM. The value for `C=CC(=O)N1CCC(NC(=O)c2ccc(Nc3ncc(C(F)(F)F)c(NCc4nccnc4N(C)S(C)(=O)=O)n3)c(OC)c2)C1` (stereo unspecified) [US20250127800, Example 2] was 1.18 nM. The value for `C=CC(=O)NC1CCC(CNC(=O)c2ccc(Nc3ncc(C(F)(F)F)c(NCc4nccnc4N(C)S(C)(=O)=O)n3)c(OC)c2)CC1` (stereo unspecified) [US20250127800, Example 5] was 0.9 nM; that for `C=CC(=O)N1CCCC(c2cccc(NCc3ccc(Nc4ncc(Cl)c(Nc5ccccc5C(=O)NC)n4)cc3)c2)C1` (stereo unspecified) [US20250127800, Example 15] was 7.84 nM.

The record behind these values is BindingDB's records for patent US20250127800 (Signet Therapeutics, 2025).
